Patent US10023902B2, “Methods for detecting enzyme activity using fluorescence lifetime imaging” (Purdue Research Foundation, priority 2012, dated 2018)
Residues, ends and D or L forms follow the SMILES beside them. No end group written: not given here. *: point of attachment. X1 = C[N+]1=C(C=CC=CC=C2N(CCCCCC(=O)NCCN3C(=O)CC(*)C3=O)c3ccccc3C2(C)C)C(C)(C)c2ccccc21; Cy5 = Cy5 fluorophore label on the Cys side chain

Assays:
Abl kinase = experiment: Biosensor Cy5 fluorescence lifetime analysis in live MEFs (FLIM); type: cell-based, mouse; settings: control MEFs expressing Abl kinase, 50 nM, 24 h; non-parametric ANOVA, P<0.05
Procedure: With reference to FIG. 3, WT MEF cells (unless otherwise indicated) were cultured on cover slips and incubated with the biosensor peptide or a control (as indicated, 50 nM for each) for 24 h, then imaged using the FLIM system. Data were extracted from raw FLIM images and represented as lifetime maps of autofluorescence, Cy5 only, Abl-TAT in Abl (−/−) MEFs, Abl-TAT in WT MEFs, Abl-F-mutant, Abl-phospho. With reference to FIG. 3A, fluorophore lifetime per cell was averaged for at least 20 cells in 3-5 replicate experiments and plotted as a distribution of lifetimes observed in each condition. Error bars represent standard error of the mean for each lifetime value. […] Error bars represent SEM.
Cover slips were washed with PBS and imaged immediately.
Average lifetimes per cell for multiple cells were calculated and plotted to show the distribution of lifetimes observed for the biosensor and each control (FIG. 3G). The distributions were determined to be non-Gaussian, so non-parametric ANOVA with a Dunn's post-test was used to evaluate statistical significance (P<0.05) for differences in the mean lifetimes. […] These experiments confirmed that the increase in Cy5 lifetime was specific and due to Abl-dependent phosphorylation of the biosensor peptide on tyrosine. […]

Syk kinase = experiment: FLIM detection of Syk kinase activity with SAStide-TAT biosensor in MCF7 breast cancer cells; type: cell-based
MEFs = settings: FCS, Cy5 alone vs biosensor
Procedure: Sequestration of the biosensor in endosomes was tested by staining for an endosomal marker. […] Peptide degradation, a potential issue in some cell types, was also examined.

## Abl-F-mutant: analog having a phenylalanine substitution for the tyrosine residue of the Abltide-TAT biosensor, SEQ ID NO:3 (EAIYAAP)
Abl kinase
  mean Cy5 fluorescence lifetime per cell: significantly lower mean lifetimes than both Abl-TAT in MEFs expressing Abl kinase and Abl-phospho

## CCN1/C(=C/C=C/C=C/C2=[N+](CCCCCC(=O)O)c3ccc(S(=O)(=O)O)cc3C2(C)C)C(C)(C)c2cc(S(=O)(=O)[O-])ccc21 [Cy5, reference compound]
Abl kinase
  mean Cy5 fluorescence lifetime per cell: significantly lower mean lifetimes than both Abl-TAT in MEFs expressing Abl kinase and Abl-phospho

## COc1cc(Nc2ncc(F)c(Nc3ccc4c(n3)N(COP(=O)(O)O)C(=O)C(C)(C)O4)n2)cc(OC)c1OC [fostamatinib, reference compound]
Syk kinase; Syk +/+ cells pre-treated with SAStide-TAT-Cy5 biosensor and inhibitor, 1 hour
  regions of increased Cy5 lifetime after inhibitor pre-treatment: no regions of increased lifetime were observed

## CC[C@H](C)[C@H](NC(=O)[C@H](C)NC(=O)[C@H](CCC(=O)O)NC(=O)CNC(=O)CN)C(=O)N[C@@H](Cc1ccc(O)cc1)C(=O)N[C@@H](C)C(=O)N[C@@H](C)C(=O)N1CCC[C@H]1C(=O)N[C@@H](CSC1CC(=O)N(CCNC(=O)CCCCCN2C(=CC=CC=CC3=[N+](C)c4ccccc4C3(C)C)C(C)(C)c3ccccc32)C1=O)C(=O)NCC(=O)NCC(=O)N[C@@H](CCCNC(=N)N)C(=O)N[C@@H](CCCCN)C(=O)N[C@@H](CCCCN)C(=O)N[C@@H](CCCNC(=N)N)C(=O)N[C@@H](CCCNC(=N)N)C(=O)N[C@@H](CCC(N)=O)C(=O)N[C@@H](CCCNC(=N)N)C(=O)N[C@@H](CCCNC(=N)N)C(=O)N[C@@H](CCCNC(=N)N)C(=O)N1CCC[C@H]1C(=O)N[C@@H](CCC(N)=O)C(=O)O (some centres unmarked) [Abl-TAT] (H-GGEAIYAAPC(X1)GGRKKRRQRRRPQ-OH)
MEFs
  peptide degradation to free Cy5: not degraded to free Cy5

## DEEDYEEPDEPGGCCy5GGRKKRRQRRRPQ (DEEDYEEPDEPGGC(Cy5)GGRKKRRQRRRPQ) [SAStide-TAT, Cy5-labeled Syk substrate peptide]
Syk kinase; active Syk-expressing cells, pervanadate (Syk activation conditions), co-localizes with decreased EGFP lifetime
  Cy5 lifetime shift of biosensor: increased Cy5 lifetime
